Where a name gives a salt, the structure may show the parent alone. Read-outs that look alike come from different tables or passages of the source.
Columns and labels:
[1] = system: MDA-MB-231 breast cancer cell lines; assay: Evaluation of inhibition on cell growth (MTS); assay type: cell-based; details: Homo sapiens, MDA-MB-231, 120 hours
Method in brief: (§1)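 GI50 values come from growth equations comparing treated, untreated and medium-only wells. Fibroblasts (Hs27, Balb/c3t3) got 72 h compound exposure with SRB read-out at 540 nm after TCA fixing. MDA-MB-231 got 120 h with MTS at 490 nm, across 10 μM˜0.1 nM.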

[2] = Toxicity to normal cells (SRB); assay type: cell-based, mouse; details: mouse, Balb/c3t3 fibroblasts (normal cell line), read-out: BalB/C (GI50)
Method in brief: as §1

[3] = Toxicity to normal cells (SRB); assay type: cell-based, human; details: human, Hs27 fibroblasts (normal cell line)
Method in brief: as §1

`CN[C@@H](C)C(=O)N[C@H](C(=O)N1CCC[C@H]1C(=O)Nc1cc2c(Nc3ccc(N4CCS(=O)(=O)CC4)cc3)ncnc2cc1OC)C(C)(C)C` [Example 72, (S)—N-(4-((1,1-dioxide-4-thiomorpholinyl)phenylamino)-7-methoxyquinazolin-6-yl)-1-((S)-3,3-dimethyl-2-((S)-2-(methylamino)propanamido)butanoyl)pyrrolidine-2-carboxamide] showed a GI50 [1] of no more than 0.1 µM, a GI50 at 72 h [2] greater than 10 µM and a GI50 at 72 h [3] greater than 10 µM.
For `CNc1ncnc2cc(OC)c(NC(=O)[C@@H]3CCCN3C(=O)[C@@H](NC(=O)[C@H](C)NC)C(C)(C)C)cc12` [Example 23, (S)-1-((S)-3,3-dimethyl-2-((S)-2-(methylamino)propanamido)butanoyl)-N-(7-methoxy-4-(methylamino)quinazolin-6-yl)pyrrolidine-2-carboxamide], the GI50 [1] was no more than 0.1 µM, the GI50 at 72 h [2] was greater than 10 µM and the GI50 at 72 h [3] was greater than 10 µM.
In the case of `CN[C@@H](C)C(=O)N[C@H](C(=O)N1CCC[C@H]1C(=O)Nc1cc2c(Nc3cccc(OC)c3)ncnc2cc1OC)C(C)(C)C` [Example 57, (S)-1-((S)-3,3-dimethyl-2-((S)-2-(methylamino)propanamido)butanoyl)-N-(7-methoxy-4-(3-methoxyphenylamino)quinazolin-6-yl)pyrrolidine-2-carboxamide hydrochloride], the GI50 [1] is reported as no more than 0.1 µM, the GI50 at 72 h [2] is reported as greater than 10 µM and the GI50 at 72 h [3] is reported as greater than 10 µM.
Compound `CN[C@@H](C)C(=O)N[C@H](C(=O)N1CCC[C@H]1C(=O)Nc1cc2c(Nc3ccncc3)ncnc2cc1OC)C(C)(C)C` [Example 73, (S)-1-((S)-3,3-dimethyl-2-((S)-2-(methylamino)propanamido)butanoyl)-N-(7-methoxy-4-(pyridin-4-ylamino)quinazolin-6-yl)pyrrolidine-2-carboxamide hydrochloride] has a GI50 [1] of no more than 0.1 µM, a GI50 at 72 h [2] greater than 10 µM and a GI50 at 72 h [3] greater than 10 µM.
Work on `CN[C@@H](C)C(=O)N[C@H](C(=O)N1CCC[C@H]1C(=O)Nc1cc2c(Nc3c(Cl)ccc4c3OCO4)ncnc2cc1OCCOC)C(C)(C)C` [Example 3, ((S)—N-(4-(5-chlorobenzo[d][1,3]dioxol-4-ylamino)-7-(2-methoxyethoxy)quinazolin-6-yl)-1-((S)-3,3-dimethyl-2-((S)-2-(methylamino)propanamido)butanoyl)pyrrolidine-2-carboxamide hydrochloride] yielded a GI50 [1] of 0.1 to 1 µM, a GI50 at 72 h [2] greater than 10 µM and a GI50 at 72 h [3] greater than 10 µM.
For `CN[C@@H](C)C(=O)N[C@H](C(=O)N1CCC[C@H]1C(=O)Nc1cc2c(Nc3ccc4ncccc4c3)ncnc2cc1OC)C(C)(C)C` [Example 53, (S)-1-((S)-3,3-dimethyl-2-((S)-2-(methylamino)propanamido)butanoyl)-N-(7-methoxy-4-(quinoline-6-ylamino)quinazolin-6-yl)pyrrolidine-2-carboxamide], the GI50 [1] was no more than 0.1 µM, the GI50 at 72 h [2] was greater than 10 µM and the GI50 at 72 h [3] was greater than 10 µM.
Work on `CN[C@@H](C)C(=O)N[C@H](C(=O)N1CCC[C@H]1C(=O)Nc1cc2c(Nc3ccc(Cl)cc3Cl)ncnc2cc1OC)C(C)(C)C` [Example 58, (S)—N-(4-(2,4-dichlorophenylamino)-7-methoxyquinazolin-6-yl)-1-((S)-3,3-dimethyl-2-((S)-2-(methylamino)propanamido)butanoyl)pyrrolidine-2-carboxamide hydrochloride] yielded a GI50 [1] of no more than 0.1 µM, a GI50 at 72 h [2] greater than 10 µM and a GI50 at 72 h [3] greater than 10 µM.
`CN[C@@H](C)C(=O)N[C@H](C(=O)N1CCC[C@H]1C(=O)Nc1cc2c(Nc3cccc(F)c3F)ncnc2cc1OC)C(C)(C)C` [Example 42, (S)—N-(4-(2,3-difluorophenylamino)-7-methoxyquinazolin-6-yl)-1-((S)-3,3-dimethyl-2-((S)-2-(methylamino)propanamido)butanoyl)pyrrolidine-2-carboxamide hydrochloride] showed a GI50 [1] of no more than 0.1 µM, a GI50 at 72 h [2] greater than 10 µM and a GI50 at 72 h [3] greater than 10 µM.
Compound `CN[C@@H](C)C(=O)N[C@H](C(=O)N1CCC[C@H]1C(=O)Nc1cc2c(Nc3ccc(OC)cc3)ncnc2cc1OC)C(C)(C)C` [Example 49, (S)-1-((S)-3,3-dimethyl-2-((S)-2-(methylamino)propanamido)butanoyl)-N-(7-methoxy-4-(4-methoxyphenylamino)quinazolin-6-yl)pyrrolidine-2-carboxamide hydrochloride] has a GI50 [1] of no more than 0.1 µM, a GI50 at 72 h [2] greater than 10 µM and a GI50 at 72 h [3] greater than 10 µM.
Compound `CN[C@@H](C)C(=O)N[C@H](C(=O)N1CCC[C@H]1C(=O)Nc1cc2c(N(C)c3ccccc3)ncnc2cc1OC)C(C)(C)C` [Example 31, (S)-1-((S)-3,3-dimethyl-2-((S)-2-(methylamino)propanamido)butanoyl)-N-(7-methoxy-4-(methyl(phenyl)amino)quinazolin-6-yl)pyrrolidine-2-carboxamide hydrochloride] has a GI50 [1] of no more than 0.1 µM, a GI50 at 72 h [2] greater than 10 µM and a GI50 at 72 h [3] greater than 10 µM.
Work on `CN[C@@H](C)C(=O)N[C@H](C(=O)N1CCC[C@H]1C(=O)Nc1cc2c(Nc3ccc(N(C)C)cc3)ncnc2cc1OC)C(C)(C)C` [Example 64, (S)-1-((S)-3,3-dimethyl-2-((S)-2-(methylamino)propanamido)butanoyl)-N-(7-methoxy-4-(4-dimethylamino)phenylamino)quinazolin-6-yl)pyrrolidine-2-carboxamide dihydrochloride] yielded a GI50 [1] of no more than 0.1 µM, a GI50 at 72 h [2] greater than 10 µM and a GI50 at 72 h [3] greater than 10 µM.
Compound `CN[C@@H](C)C(=O)N[C@H](C(=O)N1CCC[C@H]1C(=O)Nc1cc2c(Nc3ccc(Oc4ccccc4)cc3)ncnc2cc1OC)C(C)(C)C` [Example 40, (S)-1-((S)-3,3-dimethyl-2-((S)-2-(methylamino)propanamido)butanoyl)-N-(7-methoxy-4-(4-phenoxyphenylamino)quinazolin-6-yl)pyrrolidine-2-carboxamide hydrochloride] has a GI50 [1] of no more than 0.1 µM, a GI50 at 72 h [2] greater than 10 µM and a GI50 at 72 h [3] greater than 10 µM.
In the case of `CN[C@@H](C)C(=O)N[C@H](C(=O)N1CCC[C@H]1C(=O)Nc1cc2c(NCc3ccc(F)cc3F)ncnc2cc1OC)C(C)(C)C` [Example 35, (S)—N-(4-(2,4-difluorobenzylamino)-7-methoxyquinazolin-6-yl)-1-((S)-3,3-dimethyl-2-((S)-2-(methylamino)propanamido)butanoyl)pyrrolidine-2-carboxamide hydrochloride], the GI50 [1] is reported as no more than 0.1 µM, the GI50 at 72 h [2] is reported as greater than 10 µM and the GI50 at 72 h [3] is reported as greater than 10 µM.
With `CN[C@@H](C)C(=O)N[C@H](C(=O)N1CCC[C@H]1C(=O)Nc1cc2c(Nc3ccc(N4CCCCC4)cc3)ncnc2cc1OC)C(C)(C)C` [Example 66, (S)-1-((S)-3,3-dimethyl-2-((S)-2-(methylamino)propanamido)butanoyl)-N-(7-methoxy-4-(4-(piperidin-1-yl)phenylamino)quinazolin-6-yl)pyrrolidine-2-carboxamide dihydrochloride] the GI50 [1] was no more than 0.1 µM, the GI50 at 72 h [2] was greater than 10 µM and the GI50 at 72 h [3] was greater than 10 µM.
`CN[C@@H](C)C(=O)N[C@H](C(=O)N1CCC[C@H]1C(=O)Nc1cc2c(Nc3c(Cl)ccc4c3OCO4)ncnc2cc1OC)C(C)(C)C` [Example 51, (S)—N-(4-(5-chlorobenzo[d][1,3]dioxol-4-ylamino)-7-methoxyquinazolin-6-yl)-1-((S)-3,3-dimethyl-2-((S)-2-(methylamino)propanamido)butanoyl)pyrrolidine-2-carboxamide hydrochloride] showed a GI50 [1] of no more than 0.1 µM, a GI50 at 72 h [2] greater than 10 µM and a GI50 at 72 h [3] greater than 10 µM.
For `CN[C@@H](C)C(=O)N[C@H](C(=O)N1CCC[C@H]1C(=O)Nc1cc2c(Nc3ccccc3OC)ncnc2cc1OC)C(C)(C)C` [Example 30, (S)—N-(4-(2-methoxyphenylamino)-7-methoxyquinazolin-6-yl)-1-((S)-3,3-dimethyl-2-((S)-2-(methylamino)propanamido)butanoyl)pyrrolidine-2-carboxamide hydrochloride], the GI50 [1] was no more than 0.1 µM, the GI50 at 72 h [2] was greater than 10 µM and the GI50 at 72 h [3] was greater than 10 µM.
Compound `CN[C@@H](C)C(=O)N[C@H](C(=O)N1C[C@H](OCc2ccccc2)C[C@H]1C(=O)Nc1cc2c(Nc3ccc(F)c(Cl)c3F)ncnc2cc1OC)C(C)(C)C` [Example 46, (2S,4R)-4-(benzyloxy)-N-(4-(3-chloro-2,4-difluorophenylamino)-7-methoxyquinazolin-6-yl)-1-((S)-3,3-dimethyl-2-((S)-2-(methylamino)propanamido)butanoyl)pyrrolidine-2-carboxamide hydrochloride] has a GI50 [1] of no more than 0.1 µM, a GI50 at 72 h [2] greater than 10 µM and a GI50 at 72 h [3] greater than 10 µM.
`CN[C@@H](C)C(=O)N[C@H](C(=O)N1CCC[C@H]1C(=O)Nc1cc2c(Nc3ccc(-c4ccccc4)cc3)ncnc2cc1OC)C(C)(C)C` [Example 39, (S)—N-(4-(biphenyl-4-ylamino)-7-methoxyquinazolin-6-yl)-1-((S)-3,3-dimethyl-2-((S)-2-(methylamino)propanamido)butanoyl)pyrrolidine-2-carboxamide hydrochloride] showed a GI50 [1] of no more than 0.1 µM, a GI50 at 72 h [2] greater than 10 µM and a GI50 at 72 h [3] greater than 10 µM.
In the case of `CN[C@@H](C)C(=O)N[C@H](C(=O)N1CCC[C@H]1C(=O)Nc1cc2c(Nc3ccc(NC(C)=O)cc3)ncnc2cc1OC)C(C)(C)C` [Example 69, (S)—N-(4-(4-acetamidophenylamino)-7-methoxyquinazolin-6-yl)-1-((S)-3,3-dimethyl-2-((S)-2-(methylamino)propanamido)butanoyl)pyrrolidine-2-carboxamide], the GI50 [1] is reported as no more than 0.1 µM, the GI50 at 72 h [2] is reported as greater than 10 µM and the GI50 at 72 h [3] is reported as greater than 10 µM.
Work on `CNC(=O)c1ccc(Nc2ncnc3cc(OC)c(NC(=O)[C@@H]4CCCN4C(=O)[C@@H](NC(=O)[C@H](C)NC)C(C)(C)C)cc23)cc1` [Example 74, (S)-1-((S)-3,3-dimethyl-2-((S)-2-(methylamino)propanamido)butanoyl)-N-(7-methoxy-4-(4-(methylcarbamoyl)phenylamino)quinazolin-6-yl)pyrrolidine-2-carboxamide] yielded a GI50 [1] of no more than 0.1 µM, a GI50 at 72 h [2] greater than 10 µM and a GI50 at 72 h [3] greater than 10 µM.
